Test systems include RPMI-8226 leukemia; OVCAR-5 ovarian; BT-549 breast; U251 CNS; NCI-H522 lung; UO-31 renal; HT29 colon; ACHN renal; HOP-92 NSCLC; T-47D breast.
Assay in all cases: inhibition of tumour cell growth, NCI panel, 48 h

Molecules are shown by their SMILES.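 Interpolation was linear, between the two tested concentrations surrounding the appropriate level; five concentrations were tested over 48 hours in 96-well plates. TGI denotes the concentration required for complete inhibition of growth.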

In the case of `CN(C(=O)C1(C(=O)C=[N+]=[N-])CC1)c1ccccc1`, the TGI in the assay on RPMI-8226 leukemia, in the assay with OVCAR-5 ovarian, in the assay on BT-549 breast, with U251 CNS, in the assay on NCI-H522 lung and in the assay with UO-31 renal was greater than 100 µM throughout. For the same molecule, the TGI in the assay on HT29 colon and in the assay on ACHN renal was greater than 100 µM throughout.

In the case of `COP(=O)(OC)C(N)CCSC` (stereo not given), the TGI with RPMI-8226 leukemia, in the assay with HOP-92 NSCLC, with OVCAR-5 ovarian, in the assay with BT-549 breast, in the assay with U251 CNS and in the assay with NCI-H522 lung was greater than 100 µM throughout. For the same molecule, the TGI in the assay with UO-31 renal, in the assay on HT29 colon and in the assay with ACHN renal was greater than 100 µM in each case.

For `COC(=O)c1ccc(-c2nc(C#N)c(N)o2)cc1`, the TGI in the assay with RPMI-8226 leukemia, in the assay with T-47D breast, with OVCAR-5 ovarian, in the assay with BT-549 breast, in the assay on U251 CNS and with NCI-H522 lung was greater than 100 µM in each case. Further, the TGI in the assay with UO-31 renal, in the assay on HT29 colon and in the assay with ACHN renal was greater than 100 µM in each case.

As for `CC(C)(CO)CNc1nc(N)nc(Cl)c1N`, the TGI with HOP-92 NSCLC, in the assay with T-47D breast, in the assay on OVCAR-5 ovarian, in the assay with BT-549 breast, in the assay with U251 CNS and in the assay on NCI-H522 lung was greater than 100 µM throughout. In addition, the TGI in the assay with UO-31 renal, in the assay with HT29 colon and with ACHN renal was greater than 100 µM in each case.

On to `O=C(c1ccccc1)c1c(C(F)(F)F)n([O-])c2ccccc2[n+]1=O`, for which the TGI with RPMI-8226 leukemia is 3.34 µM; in the assay with HOP-92 NSCLC, 1.2 µM; in the assay with T-47D breast, 2.85 µM; with BT-549 breast, 1.93 µM; in the assay with U251 CNS, greater than 100 µM; in the assay on NCI-H522 lung, 2 µM. The TGI in the assay on UO-31 renal is 2.27 µM; with HT29 colon, 2.23 µM.

On to `Cc1c2c3cc(O)ccc3nc-2n(C)c2ccccc12`, for which the TGI in the assay with RPMI-8226 leukemia is greater than 100 µM; with HOP-92 NSCLC, 5.21 µM; in the assay with T-47D breast, 17.1 µM; with OVCAR-5 ovarian it was 8.85 µM; in the assay on BT-549 breast it was 8.52 µM; with U251 CNS it was 6.91 µM. Besides, the TGI in the assay on UO-31 renal stood at 2.72 µM; in the assay on HT29 colon, 7.26 µM; in the assay with ACHN renal, 10.3 µM.

As to `CCOC(=O)c1ccc(C(=O)C(C(C)=O)C(=O)OC(C)(C)C)n1C` (stereo not given), the TGI with RPMI-8226 leukemia, in the assay on T-47D breast, in the assay on OVCAR-5 ovarian, in the assay on BT-549 breast, with U251 CNS and with NCI-H522 lung was greater than 100 µM throughout. The TGI in the assay with UO-31 renal, in the assay on HT29 colon and with ACHN renal was greater than 100 µM each time.

Take `OCC1OC(n2cnc3cccnc32)CC1O` (stereo not given): the TGI with HOP-92 NSCLC, in the assay with T-47D breast, in the assay with OVCAR-5 ovarian, in the assay with BT-549 breast, in the assay on U251 CNS and in the assay on NCI-H522 lung was greater than 100 µM in each case. In addition, the TGI in the assay with UO-31 renal, in the assay on HT29 colon and in the assay with ACHN renal was greater than 100 µM throughout.

As for `COC(=O)c1sc(=S)sc1SCc1ccccc1CSc1sc(=S)sc1C(=O)OC`, the TGI in the assay on HOP-92 NSCLC, in the assay with OVCAR-5 ovarian, in the assay on BT-549 breast, in the assay with U251 CNS, in the assay with NCI-H522 lung and with UO-31 renal was greater than 100 µM each time. Also, the TGI in the assay on HT29 colon and in the assay with ACHN renal was greater than 100 µM each time.

On to `COc1ccc(C2(c3ccc(OC)cc3)OC(=O)c3cccc4cccc2c34)cc1`, for which the TGI with RPMI-8226 leukemia is 8.8 µM; in the assay on HOP-92 NSCLC it was greater than 100 µM; in the assay with T-47D breast it was 80.8 µM; in the assay on OVCAR-5 ovarian, greater than 100 µM; with BT-549 breast, greater than 100 µM; in the assay on U251 CNS, greater than 100 µM. Further, the TGI is greater than 100 µM with UO-31 renal, 5.98 µM in the assay with HT29 colon and greater than 100 µM with ACHN renal.

`O=C(C1=C(C(=O)c2ccccc2)SC2(S1)C(C(=O)c1ccccc1)=C(C(=O)c1ccccc1)Sc1c2ssc1=O)c1ccccc1`: the TGI with HOP-92 NSCLC was greater than 100 µM; with T-47D breast, greater than 100 µM; in the assay on OVCAR-5 ovarian, 59.2 µM; in the assay with BT-549 breast it was greater than 100 µM; in the assay on U251 CNS, greater than 100 µM; with NCI-H522 lung, 85.5 µM. Further, the TGI with UO-31 renal, with HT29 colon and in the assay on ACHN renal was greater than 100 µM throughout.

With `CCCCCc1cc2c(cc1O)CC[C@@H]1[C@@H]2CC[C@]2(C)[C@@H](O)CC[C@@H]12`, the TGI in the assay on RPMI-8226 leukemia was 62.2 µM; with HOP-92 NSCLC, 32.3 µM; in the assay on T-47D breast, 55.5 µM; in the assay with OVCAR-5 ovarian it was 33.6 µM; in the assay with U251 CNS, 38.1 µM; with NCI-H522 lung, 42.7 µM. For the same molecule, the TGI in the assay with UO-31 renal was 28.4 µM; in the assay on HT29 colon it was 41.2 µM; in the assay with ACHN renal it was 27.5 µM.

For the molecule `CC1(C)COC(c2cccc(C3=NC(C)(C)CO3)c2Br)=N1`, the TGI in the assay on RPMI-8226 leukemia, in the assay with HOP-92 NSCLC, in the assay on T-47D breast, with OVCAR-5 ovarian, with BT-549 breast and in the assay on U251 CNS was greater than 100 µM throughout. The TGI with UO-31 renal, with HT29 colon and in the assay with ACHN renal was greater than 100 µM throughout.

Consider `N#Cc1c(Nc2ccc(F)cc2)[n+]([O-])c2ccc(Cl)cc2[n+]1[O-]`, for which the TGI was 9.97 µM with RPMI-8226 leukemia; 5.16 µM with HOP-92 NSCLC; 38.9 µM in the assay with T-47D breast; 74.4 µM in the assay with BT-549 breast; 19.1 µM with U251 CNS; 42.1 µM with UO-31 renal. Further, the TGI with HT29 colon is greater than 100 µM.

With `CC[C@]12C=CCN3CCC4(c5cc(N=Nc6ccccc6)c(OC)cc5N(C)[C@H]4[C@@](O)(C(=O)OC)[C@@H]1OC(C)=O)[C@@H]32` (stereo not given in full), the TGI in the assay on RPMI-8226 leukemia was found to be 59.3 µM; in the assay on HOP-92 NSCLC it was 30.2 µM; in the assay on OVCAR-5 ovarian it was 41.1 µM; with BT-549 breast, 35.6 µM; with U251 CNS, 29.4 µM; in the assay on NCI-H522 lung it was 33 µM. Also, the figures for the TGI in the assay on UO-31 renal, in the assay on HT29 colon and in the assay with ACHN renal were 29.8 µM, 33.8 µM and 30.1 µM, respectively.

For the origin of these results see PubChem BioAssay (NCI).
